In patent publication US4061741A, “Physiological substances for intensifying the pharmacological effect of drugs” (Firma Servomed Arzei GmbH & Co. Pharma KG, priority 1974, dated 1977):
“Also recorded” adds a separate entry of the source. Structures can show the parent of a compound that is named as a salt.

How the values were obtained:
CFI mice = experiment: analgesic efficacy, writhing test, 60 minutes after oral application (Examples 5 to 8, Tables V to VIII); type: in vivo, mouse (CFI); conditions: for ED50: Mus musculus, 1 h, 60 mins.
Experimental: The analgesic efficacy of sodium salicylate, sodium salicylate + choline orotate in the molar ratio of 1:1 and sodium salicylate + choline orotate in the molar ratio of 1:2 was compared in the writhing test on mice and the ED50 determined after 1 hour.
As in Example 5, the ED50 of metamizol and metamizol + choline orotate in the molar ratio of 1:2 was determined after one hour by the writhing test.
The analgesic effects of codeine phosphate and codeine phosphate + choline orotate (molar ratio 1:1) are compared in the writhing test on mice.

guinea pigs [1] = experiment: antitussive efficacy, Turner cough test, citric acid aerosol, oral (Example 4, Table IV); type: in vivo; conditions: guinea pig, calculated with respect to 1-propoxyphene-HCl
Experimental: The antitussive efficacy of laevopropoxyphene-HCl, laevopropoxyphene orotate, laevopropoxyphene orotate + choline orotate (in the molar ratio 1:1) and of laevopropoxyphene-HCl + choline orotate (in the molar ratio of 1:2) was tested and compared after oral application on guinea pigs using the Turner cough test.
ED50 in mg/kg of guinea pig. Values calculated with respect
280 guinea pigs (350 g); oral application.
7.5% citric acid aerosol.

guinea pigs [2] = experiment: antitussive efficacy, Turner cough test, citric acid aerosol, oral (Example 2, Table II); type: in vivo, guinea pig; conditions: for % cough inhibition: 30 minutes after oral application; for ED50: calculated according to the Gaussian Integral from the values of Table II, 30 minutes; for ED50 / antitussive efficacy (in words): oral; for antitussive efficacy (in words): in the dosages tested, guinea pigs
Experimental: The antitussive efficacy of laevopropoxyphene-HCl and laevopropoxyphene orotate was compared on guinea pigs, using the Turner cough test.
% cough inhibition 30 minutes after oral application.
70 guinea pigs, 250 g; 7.5% citric acid aerosol for 10
minutes in the respired air.
According to the Gaussian Integral, from the values shown in the Table, the ED50 can be calculated for: L-propoxyphene-HCl as being greater than 200 mg/kg of animal, 1-propoxyphene orotate 79 ± 8 mg/kg of animal.

guinea pigs [3] = experiment: antitussive action, Turner cough test, citric acid aerosol, intravenous (Example 3, Table III); type: in vivo, guinea pig
Experimental: As with Example 2, the two substances laevopropoxyphene-HCl and laevopropoxyphene orotate were tested and compared with respect to their antitussive action. This time, however, intravenous applications were adopted.
% cough inhibition; the figures in brackets represent mg
propoxyphene-HCl in the 1-propoxyphene orotate.
320 guinea pigs (350 g); intravenous application. 7.5%

blood proteins = experiment: drug not bonded to serum protein, ultrafiltration of human serum with and without orotic acid; type: in vitro ADME; conditions: in the presence of orotic acid
Experimental: 1 ml of this serum is then ultrafiltered at the same temperature, accompanied by agitation. (Filter permeability up to a molecular weight of approx. 10,000). The radioactivity contained in this ml is measured. The measured value, found […], indicates the percentage of drug which is not bonded to protein. The same test is repeated but in the presence of non-radioactively marked orotic acid in a molar ratio to the marked drug of for example 1:1 or 1:2. The percentage of free drug is calculated similarly as described above. If the second measured value is higher than the first, then this is a measure of improved availability of the drug. This increased availability is confirmed in experiments with animals.

NMRI mice = experiment: analgesic efficacy, writhing syndrome, oral (Example 1, Table I); type: in vivo, mouse (NMRI, female)
Experimental: Dextropropoxyphene-HCl, dextropropolyphenorotate and dextropropoxyphene orotate + orotic acid (in the molar ratio 1:1) were tested on mice to determine their analgesic efficacy after oral administration following the "writhing" syndrome. The ED50 was determined after 15 minutes, 30 minutes, 60 minutes and 180 minutes.
ED50 in […] of mouse (calculated with respect to the
dextropropoxyphene-HCl);
oral application, writhing syndrome, 800 NMRI mice, […]

COc1ccc2c3c1O[C@H]1[C@@H](O)C=C[C@H]4[C@@H](C2)N(C)CC[C@@]341 [Codeine phosphate]
ED50 (CFI mice; oral, writhing syndrome, CFI mice, female, 20 to 22 g, Table VII): 82 mg/kg

CCC(=O)O[C@@](Cc1ccccc1)(c1ccccc1)[C@@H](C)CN(C)C [Laevopropoxyphene orotate]
ED50 (guinea pigs [1]; 1 hr., listed as Laevopropoxyphene crotate, 60 min): 103 mg/kg | ED50 (guinea pigs [1]; 3 hr., listed as Laevopropoxyphene crotate, 180 min): 68 mg/kg | % cough inhibition (guinea pigs [2]; 25 mg/kg): 6% | % cough inhibition (guinea pigs [2]; 50 mg/kg): 31% | % cough inhibition (guinea pigs [2]; 75 mg/kg): 47% | % cough inhibition (guinea pigs [2]; 100 mg/kg): 56% | ED50 (guinea pigs [2]; listed as 1-propoxyphene orotate): 79 ± 8 mg/kg of animal | antitussive efficacy (in words) (guinea pigs [2]): outstanding antitussive efficacy | % cough inhibition (guinea pigs [3]; 1 (0.758) mg/kg, 5 min., bracket = mg propoxyphene-HCl): 17.5% | % cough inhibition (guinea pigs [3]; 1 (0.758) mg/kg, 10 min.): 24% | % cough inhibition (guinea pigs [3]; 1 (0.758) mg/kg, 15 min.): 30% | % cough inhibition (guinea pigs [3]; 1 (0.758) mg/kg, 20 min.): 23% | % cough inhibition (guinea pigs [3]; 3 (2.27) mg/kg, 5 min.): 31.0% | % cough inhibition (guinea pigs [3]; 3 (2.27) mg/kg, 10 min.): 30% | % cough inhibition (guinea pigs [3]; 3 (2.27) mg/kg, 15 min.): 36% | % cough inhibition (guinea pigs [3]; 3 (2.27) mg/kg, 20 min.): 47% | % cough inhibition (guinea pigs [3]; 5 (3.79) mg/kg, 5 min.): 40.5% | % cough inhibition (guinea pigs [3]; 5 (3.79) mg/kg, 10 min.): 48% | % cough inhibition (guinea pigs [3]; 5 (3.79) mg/kg, 15 min.): 53% | % cough inhibition (guinea pigs [3]; 5 (3.79) mg/kg, 20 min.): 59% | % cough inhibition (guinea pigs [3]; 7.5 (5.69) mg/kg, 5 min.): 52.0% | % cough inhibition (guinea pigs [3]; 7.5 (5.69) mg/kg, 10 min.): 59% | % cough inhibition (guinea pigs [3]; 7.5 (5.69) mg/kg, 15 min.): 63% | % cough inhibition (guinea pigs [3]; 7.5 (5.69) mg/kg, 20 min.): 62% | antitussive efficacy (in words) (guinea pigs [3]; guinea pigs): superior efficacy

O=C([O-])c1ccccc1O.[Na+] [Sodium salicylate]
ED50 (CFI mice; oral, writhing test, CFI mice (18 - 20 g), Table V): 580 mg/kg

CCC(=O)O[C@@](Cc1ccccc1)(c1ccccc1)[C@@H](C)CN(C)C [Laevopropoxyphene-HCl]
ED50 (guinea pigs [1]; 1 hr., listed as Laevorpopoxyphene-HCl, 60 min): 250 mg/kg | ED50 (guinea pigs [1]; 3 hr., listed as Laevorpopoxyphene-HCl, 180 min): 195 mg/kg | % cough inhibition (guinea pigs [2]; 25 mg/kg): 0% | % cough inhibition (guinea pigs [2]; 50 mg/kg): 8% | % cough inhibition (guinea pigs [2]; 75 mg/kg): 0% | % cough inhibition (guinea pigs [2]; 100 mg/kg): 11% | % cough inhibition (guinea pigs [2]; 150 mg/kg): 0% | % cough inhibition (guinea pigs [2]; 200 mg/kg): 9% | ED50 (guinea pigs [2]; listed as L-propoxyphene-HCl): greater than 200 mg/kg of animal | antitussive efficacy (in words) (guinea pigs [2]): no antitussive efficacy | % cough inhibition (guinea pigs [3]; 2 mg/kg, 5 min.): 11% | % cough inhibition (guinea pigs [3]; 2 mg/kg, 10 min.): 0% | % cough inhibition (guinea pigs [3]; 2 mg/kg, 15 min.): 0% | % cough inhibition (guinea pigs [3]; 5 mg/kg, 5 min.): 24% | % cough inhibition (guinea pigs [3]; 5 mg/kg, 10 min.): 0% | % cough inhibition (guinea pigs [3]; 5 mg/kg, 15 min.): 0% | toxicity remark in the cough inhibition table (guinea pigs [3]; 7.5 mg/kg): subtoxic

Cc1c(N(C)CS(=O)(=O)O)c(=O)n(-c2ccccc2)n1C [Metamizol]
ED50 (CFI mice; oral, writhing test, CFI mice (18 to 20 g), Table VI): 380 mg/kg | analgesic efficacy on addition of an orotic acid salt (in words) (CFI mice; metamizol, writhing test, mice, oral): reinforcement of the analgesic efficacy

CCCCC1C(=O)N(c2ccccc2)N(c2ccccc2)C1=O [Phenyl butazone]
ED50 (CFI mice; oral, writhing syndrome, CFI mice, female, 20 to 22 g, Table VIII): 130 ± 45 mg/kg | analgesia in animal experiments (in words) (CFI mice; in the presence of orotic acid): no reinforced analgesia; also recorded: no reinforced pharmacological action | amount of drug in the ultrafiltrate (in words) (blood proteins): not found in increased quantity in the ultrafiltrate; also recorded: no more drug is found

CCC(=O)O[C@](Cc1ccccc1)(c1ccccc1)[C@H](C)CN(C)C [Dextropropoxyphene orotate]
analgesic efficacy (in words) (NMRI mice): substantially more intensely effective as an analgesic than dextropropoxyphene-HCl by itself
